From the CheMixHub viscosity set

Experiment: xn = mol fraction of the nth substance listed

CCC(C)(C)OC + CCCCCO
298.15 K, 101.33 kPa
Settings	viscosity [mPa·s]
x1 = 0.0219	3.286
x1 = 0.0388	3.133
x1 = 0.0752	2.891
x1 = 0.1143	2.511
x1 = 0.1631	2.192
x1 = 0.211	1.93
x1 = 0.2721	1.651
x1 = 0.3347	1.417
x1 = 0.3464	1.374
x1 = 0.385	1.26
x1 = 0.4353	1.125
x1 = 0.4908	1.003
x1 = 0.5534	0.886
x1 = 0.6141	0.789
x1 = 0.6759	0.71
x1 = 0.7266	0.652
x1 = 0.8027	0.579
x1 = 0.8732	0.521
x1 = 0.9484	0.469
x2 = 0.0064	0.441

CCCCCCCCO + CCCCCO
101.33 kPa
Settings	viscosity [mPa·s]
293.15 K, x2 = 0.1991	7.947
293.15 K, x2 = 0.3363	7.158
293.15 K, x2 = 0.4792	6.397
293.15 K, x2 = 0.6294	5.561
293.15 K, x2 = 0.7214	5.182
293.15 K, x2 = 0.911	4.341
298.15 K, x2 = 0.0849	7.229
298.15 K, x2 = 0.2664	6.385
298.15 K, x2 = 0.3696	5.903
298.15 K, x2 = 0.6046	4.921
298.15 K, x2 = 0.708	4.524
298.15 K, x2 = 0.8575	3.97

BrC(Br)Br + CCCCO
viscosity [mPa·s], 101.3 kPa
Settings	x1 = 0.099	x1 = 0.205	x1 = 0.3	x1 = 0.401	x1 = 0.501	x1 = 0.602	x1 = 0.699	x1 = 0.803	x1 = 0.899
298.15 K	2.482	2.339	2.196	2.063	1.955	1.887	1.847	1.817	1.827
303.15 K	2.183	2.07	1.942	1.841	1.768	1.718	1.695	1.684	1.709
308.15 K	1.915	1.828	1.738	1.662	1.607	1.573	1.559	1.564	1.588

CCCCCCCCO + CCCCO
viscosity [mPa·s], 101 kPa
Settings	298.15 K	308.15 K	318.15 K
x2 = 0.05	7.06	5.06	3.734
x2 = 0.1	6.764	4.867	3.602
x2 = 0.15	6.475	4.678	3.472
x2 = 0.2	6.193	4.492	3.345
x2 = 0.25	5.917	4.309	3.22
x2 = 0.3	5.646	4.129	3.097
x2 = 0.35	5.382	3.953	2.975
x2 = 0.4	5.123	3.779	2.855
x2 = 0.45	4.87	3.608	2.736
x2 = 0.5	4.622	3.44	2.618
x2 = 0.55	4.38	3.275	2.502
x2 = 0.6	4.145	3.113	2.388
x2 = 0.65	3.915	2.955	2.275
x2 = 0.7	3.692	2.8	2.164
x2 = 0.75	3.476	2.649	2.055
x2 = 0.8	3.268	2.502	1.948
x2 = 0.85	3.067	2.36	1.845
x2 = 0.9	2.875	2.223	1.744
x2 = 0.95	2.693	2.092	1.648
